Numbers after ± are expanded uncertainties.
Assay: mn = molality of the nth substance listed, in mol/kg
Conditions: 298.15 K, 101 kPa, Liquid, Vibrating tube method

CCCC(N)=O [butanamide] + O
Conditions	mass density [kg/m3]
m1 = 0.2015	997.019 ± 0.046
m1 = 0.3122	997.028 ± 0.047
m1 = 0.4106	997.052 ± 0.047
m1 = 0.5053	997.083 ± 0.048
m1 = 0.628	997.117 ± 0.048
m1 = 0.7131	997.16 ± 0.049
m1 = 0.827	997.21 ± 0.049
m1 = 0.9204	997.269 ± 0.05

Source: the NIST ThermoML archive (doi:10.1016/j.tca.2007.07.002)
